# Data published in ChEMBL document CHEMBL1201862, “PubChem BioAssay data set” (2004).
# Counter-ions that a name gives are not always drawn. Activity calls are given as the source filed them.
# Tests used:
# [1] = molecular target: Peroxisome proliferator-activated receptor gamma/Nuclear receptor corepressor 2 (Homo sapiens, UniProt P37231+Q9Y618); experiment: Counterscreen for NR2E3 inverse agonists: TR-FRET-based biochemical high throughput dose response assay to identify inverse agonists of the interaction between peroxisome proliferator-activated receptor gamma (PPARg) and nuclear receptor co-repressor 2 (NCOR2).; assay type: functional
# [2] = molecular target: Photoreceptor-specific nuclear receptor (Homo sapiens, UniProt Q9Y5X4); experiment: NR2E3 inverse agonists, dose response, biochemical, TR-FRET (AID 463256); assay type: functional
# [3] = molecular target: T1, Endoribonuclease toxin MazF (Escherichia coli K-12, UniProt P0AE70); experiment: fluorescent RNA oligo signal without MazF, dose response, counter-screen for MazEF activator project, biochemical, fluorescence, single-stranded RNase substrate (AID 588502); assay type: functional
# [4] = molecular target: T1, Endoribonuclease toxin MazF; experiment: MazF toxin RNase activators, dose response, biochemical, fluorescence, single-stranded RNA substrate, uHTS hits (AID 588481); assay type: functional
# [5] = molecular target: T2, Carboxy-terminal domain RNA polymerase II polypeptide A small phosphatase 1 (Homo sapiens, UniProt Q9GZU7); experiment: inhibitors of CTDSP1, concentration-response testing, biochemical assay, absorbance-based, actives from ultra-high-throughput screening (AID 540297); assay type: functional
# T2 sequence (Q9GZU7 whole entry): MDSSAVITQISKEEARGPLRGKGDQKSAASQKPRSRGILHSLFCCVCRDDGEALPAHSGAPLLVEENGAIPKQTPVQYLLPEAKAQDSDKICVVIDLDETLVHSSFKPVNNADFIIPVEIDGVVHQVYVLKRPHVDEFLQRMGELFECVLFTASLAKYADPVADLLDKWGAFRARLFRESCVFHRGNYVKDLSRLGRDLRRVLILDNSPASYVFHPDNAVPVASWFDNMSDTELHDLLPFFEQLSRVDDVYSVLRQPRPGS
# [6] = molecular target: T3, Beta-adrenergic receptor kinase 1 (Homo sapiens, UniProt P25098); experiment: aptamer displacement from bead-bound GRK2 – biochemical, cherry pick 1, bead flow cytometry, dose response (AID 504500)
# Caspase-7 = Caspase-7 (Homo sapiens, UniProt P55210); experiment: human caspase-7 inhibitors, dose response, selectivity assay for caspase-6 inhibitor project, biochemical, DEVD-R110 fluorescence, cherry-pick (AID 743295)
# [7] = molecular target: T4, Apoptotic protease-activating factor 1 (Homo sapiens, UniProt O14727); experiment: activation of Apaf-1 mediated apoptosis – fluorescent, uHTS hits, dose response (AID 588554); assay type: functional
# T4 sequence (O14727 whole entry): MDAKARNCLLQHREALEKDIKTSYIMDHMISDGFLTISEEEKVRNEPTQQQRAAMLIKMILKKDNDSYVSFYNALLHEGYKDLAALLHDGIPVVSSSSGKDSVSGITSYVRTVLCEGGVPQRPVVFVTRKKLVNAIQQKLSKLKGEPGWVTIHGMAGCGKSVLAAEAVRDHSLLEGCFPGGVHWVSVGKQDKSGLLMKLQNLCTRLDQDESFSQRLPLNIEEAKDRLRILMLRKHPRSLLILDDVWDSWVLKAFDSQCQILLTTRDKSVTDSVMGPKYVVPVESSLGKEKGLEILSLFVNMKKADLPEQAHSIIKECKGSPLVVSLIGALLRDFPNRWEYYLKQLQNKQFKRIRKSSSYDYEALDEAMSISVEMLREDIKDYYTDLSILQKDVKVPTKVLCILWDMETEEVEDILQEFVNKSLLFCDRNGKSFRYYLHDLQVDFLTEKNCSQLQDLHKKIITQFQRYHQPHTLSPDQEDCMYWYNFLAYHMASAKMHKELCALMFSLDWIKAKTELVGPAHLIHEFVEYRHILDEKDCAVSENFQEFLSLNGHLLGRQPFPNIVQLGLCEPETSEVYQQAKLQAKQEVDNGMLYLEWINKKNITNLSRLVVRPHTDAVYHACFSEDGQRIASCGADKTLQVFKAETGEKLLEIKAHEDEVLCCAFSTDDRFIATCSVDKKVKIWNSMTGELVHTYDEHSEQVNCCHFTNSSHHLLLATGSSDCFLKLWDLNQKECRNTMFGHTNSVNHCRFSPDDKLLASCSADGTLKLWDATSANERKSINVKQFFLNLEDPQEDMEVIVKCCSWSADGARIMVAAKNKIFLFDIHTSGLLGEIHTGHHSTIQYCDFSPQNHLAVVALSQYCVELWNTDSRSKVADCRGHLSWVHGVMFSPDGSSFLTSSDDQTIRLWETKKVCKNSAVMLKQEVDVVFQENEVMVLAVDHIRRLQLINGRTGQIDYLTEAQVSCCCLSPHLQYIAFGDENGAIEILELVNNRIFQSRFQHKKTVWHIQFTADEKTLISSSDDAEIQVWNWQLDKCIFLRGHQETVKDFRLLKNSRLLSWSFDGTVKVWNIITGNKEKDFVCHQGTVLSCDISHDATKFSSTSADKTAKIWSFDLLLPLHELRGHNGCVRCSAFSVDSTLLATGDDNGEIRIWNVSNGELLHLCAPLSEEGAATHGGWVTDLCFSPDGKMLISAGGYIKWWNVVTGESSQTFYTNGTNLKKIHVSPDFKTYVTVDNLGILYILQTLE
# [8] = molecular target: T3, Beta-adrenergic receptor kinase 1; experiment: GRK2 inhibitors displacing RNA aptamer, dose response, biochemical, flow cytometry beads, FAM-aptamer, powder set 1 (AID 588720)
# Protein S100-A4 = Protein S100-A4 (Homo sapiens, UniProt P26447); experiment: S100A4-myosin IIA binding inhibitor potency, dose response, biochemical, fluorescence polarization, cherry-picked hits (AID 687001); assay type: functional
# Caspase-6 = molecular target: T5, Caspase-6 (Homo sapiens, UniProt P55212); experiment: human caspase-6 inhibitors, dose response, biochemical, VEID-R110 fluorescence, cherry-pick (AID 720632)
# T5 sequence (P55212 whole entry): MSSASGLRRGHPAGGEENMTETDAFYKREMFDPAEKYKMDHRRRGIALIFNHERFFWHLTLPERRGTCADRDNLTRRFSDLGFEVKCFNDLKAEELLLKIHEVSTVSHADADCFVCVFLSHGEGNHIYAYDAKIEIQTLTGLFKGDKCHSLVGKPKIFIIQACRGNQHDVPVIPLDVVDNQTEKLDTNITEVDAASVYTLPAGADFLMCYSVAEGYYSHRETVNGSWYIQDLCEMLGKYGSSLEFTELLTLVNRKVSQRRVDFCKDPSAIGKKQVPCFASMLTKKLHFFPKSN
# [9] = control 3'UTR Renilla luciferase suppression, dose response, counter-screen for Shn3 inhibitor project, cell-based, Clone20-Shn3RL, cherry-picked (AID 624133); assay type: functional
# [10] = Shn3 3'UTR reporter inhibitors, dose response, cell-based, Clone20 osteoblasts, firefly luciferase, cherry-picked (AID 624132); assay type: functional;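 further: firefly luciferase luminescence from reporter carrying the Shn3 3'UTR in osteoblasts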
# HEK293 = experiment: inhibitors of LMP1-driven NF-kB reporter, dose response, cell-based, HEK293, luciferase, cherry-pick (AID 588343); assay type: functional; conditions: Homo sapiens
# [11] = Lymphoblastoid Cells (LCL) Cytotoxicity Secondary Assay Measured in Cell-Based System Using Plate Reader - 2122-03_Inhibitor_Dose_CherryPick_Activity_Set2. [Related pubchem assays (depositor defined):AID504586]
# [12] = HepG2 cell cytotoxicity, dose response, cytotoxicity control for Shn3 inhibitor project, CellTiter-Glo, cherry-picked (AID 624134); assay type: functional, cell-based
# [13] = molecular target: C-C chemokine receptor type 6 (Homo sapiens, UniProt P51684); experiment: CCR6 receptor antagonists, dose response, cell-based, luminescent beta-arrestin readout (AID 504728); assay type: functional
# [14] = cytotoxicity toward DRD oncogenic fibroblasts, dose response, cell-based, non-viral oncogenic, luminescence (AID 1934); assay type: functional; conditions: Homo sapiens
# Paired box protein Pax-8 = Paired box protein Pax-8 (Homo sapiens, UniProt Q06710); experiment: inhibitors of PAX8-driven TPO luciferase reporter, dose response, RMG-I cells, cherry-pick (AID 687027); assay type: functional, cell-based;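 further: luciferase reporter driven by Pax8 target thyroperoxidase promoter measured by SteadyGlo luminescence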
# BJ [15] = experiment: cytotoxicity toward BJ-TERT-LT-ST fibroblasts, dose response, cell-based, RAS-independent, luminescence (AID 1935); assay type: functional; conditions: Homo sapiens;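 further: BJ fibroblasts immortalized with TERT plus LT and ST oncogenes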
# [16] = molecular target: T6, Ubiquitin-conjugating enzyme E2 N (Homo sapiens, UniProt P61088); assay type: functional
# T6 sequence (P61088 whole entry): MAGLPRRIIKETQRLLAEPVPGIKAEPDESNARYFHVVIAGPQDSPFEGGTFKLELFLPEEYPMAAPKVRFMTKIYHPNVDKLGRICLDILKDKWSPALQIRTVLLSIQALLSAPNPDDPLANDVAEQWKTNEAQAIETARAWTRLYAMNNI
# Beta-galactosidase = Beta-galactosidase (Escherichia coli, UniProt Q8VNN2); experiment: beta-galactosidase enzyme inhibitors and activators, dose response, artefact control for CCR6 antagonist project, biochemical, E. coli enzyme, set 3 (AID 504712); assay type: functional
# [17] = inhibitors of SNCA 5'UTR-driven reporter translation, confirmation, H4 neuroglioma cells, luminescence (AID 1988); assay type: functional, cell-based
# [18] = inhibitors of firefly luciferase expression or activity, dose response, H4 neuroglioma cells, luminescence (AID 1990); assay type: functional, cell-based
# [19] = non-specific cell cytotoxicity, dose response, cytotoxicity control for PAX8 inhibitor project, plate reader, dry powder samples (AID 743021); assay type: functional, cell-based
# [20] = molecular target: T6, Ubiquitin-conjugating enzyme E2 N; assay type: functional; remark: listed apart in the source
# BJ [21] = experiment: cytotoxicity toward BJ-TERT fibroblasts, dose response, cell-based, RAS-independent, luminescence (AID 1933); assay type: functional; conditions: Homo sapiens
# BJ [22] = experiment: cytotoxicity toward Ras-transformed BJeLR fibroblasts, dose response, cell-based, alamar blue fluorescence, cherrypicked samples (AID 2631); assay type: functional; conditions: Homo sapiens;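 further: confirmatory dose-response assay in RAS-dependent BJ fibroblasts engineered with TERT, LT and ST, with cytotoxicity read by fluorescence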
# Bcl-2-related protein A1 = molecular target: T7, Bcl-2-related protein A1 (Mus musculus, UniProt Q07440); assay type: functional;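 further: confirmatory dose–response counterscreen on Bfl-1, used to check hits from a UBC13 polyubiquitin inhibitor campaign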
# T7 sequence (Q07440 whole entry): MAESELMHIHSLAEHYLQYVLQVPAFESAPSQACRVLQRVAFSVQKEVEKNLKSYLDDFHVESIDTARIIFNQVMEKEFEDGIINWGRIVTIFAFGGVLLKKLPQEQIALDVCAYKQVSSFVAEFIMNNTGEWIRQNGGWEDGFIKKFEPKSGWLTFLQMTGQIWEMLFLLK
# [23] = Luminescence Cell-Based Dose Response HTS to Identify Inhibitors of 5'UTR Stem-Loop Driven Prion Protein mRNA Translation in H4 Neuroglioblastoma Cells. [Related pubchem assays: 1827 (Project Summary), 1813 (Primary HTS)]; assay type: functional
# BJ [24] = experiment: cells; assay type: functional, cell-based; conditions: Homo sapiens
# [25] = molecular target: T8, DNA repair protein RAD52 homolog (Homo sapiens, UniProt P43351); assay type: functional, biochemical
# T8 sequence (P43351 whole entry): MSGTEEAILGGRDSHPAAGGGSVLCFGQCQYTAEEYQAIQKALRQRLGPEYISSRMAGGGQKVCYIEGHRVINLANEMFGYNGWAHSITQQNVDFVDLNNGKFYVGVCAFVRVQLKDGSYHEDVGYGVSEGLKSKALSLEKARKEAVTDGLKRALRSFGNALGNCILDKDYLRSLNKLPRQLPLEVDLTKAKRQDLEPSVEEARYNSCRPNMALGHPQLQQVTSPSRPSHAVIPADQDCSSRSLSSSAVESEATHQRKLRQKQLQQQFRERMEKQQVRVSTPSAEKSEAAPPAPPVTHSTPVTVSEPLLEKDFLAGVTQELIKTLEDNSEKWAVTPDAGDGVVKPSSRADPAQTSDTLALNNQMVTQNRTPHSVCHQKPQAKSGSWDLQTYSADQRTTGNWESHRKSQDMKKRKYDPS
# T3 sequence (P25098 whole entry): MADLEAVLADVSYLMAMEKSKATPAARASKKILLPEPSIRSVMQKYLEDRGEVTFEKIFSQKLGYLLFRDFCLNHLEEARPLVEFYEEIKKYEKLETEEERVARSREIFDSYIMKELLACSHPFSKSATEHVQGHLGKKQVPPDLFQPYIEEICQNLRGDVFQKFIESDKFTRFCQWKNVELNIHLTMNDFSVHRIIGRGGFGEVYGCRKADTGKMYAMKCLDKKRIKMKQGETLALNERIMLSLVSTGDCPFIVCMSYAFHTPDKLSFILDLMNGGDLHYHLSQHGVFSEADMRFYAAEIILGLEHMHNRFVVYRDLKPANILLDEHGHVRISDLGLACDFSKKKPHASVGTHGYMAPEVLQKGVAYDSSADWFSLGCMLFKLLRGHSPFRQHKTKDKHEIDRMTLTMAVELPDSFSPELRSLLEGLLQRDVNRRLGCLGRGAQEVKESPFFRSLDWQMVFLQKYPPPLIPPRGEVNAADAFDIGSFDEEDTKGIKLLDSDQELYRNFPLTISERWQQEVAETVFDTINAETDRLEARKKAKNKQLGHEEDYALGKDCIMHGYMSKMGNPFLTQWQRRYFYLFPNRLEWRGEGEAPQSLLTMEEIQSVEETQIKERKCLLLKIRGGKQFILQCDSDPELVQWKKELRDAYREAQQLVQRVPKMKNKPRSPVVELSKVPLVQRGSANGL
# T1 sequence (P0AE70 whole entry): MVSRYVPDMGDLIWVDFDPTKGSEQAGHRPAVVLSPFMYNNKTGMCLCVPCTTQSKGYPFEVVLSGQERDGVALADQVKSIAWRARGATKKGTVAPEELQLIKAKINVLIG
# Chain of Photoreceptor-specific nuclear receptor (Q9Y5X4 whole entry): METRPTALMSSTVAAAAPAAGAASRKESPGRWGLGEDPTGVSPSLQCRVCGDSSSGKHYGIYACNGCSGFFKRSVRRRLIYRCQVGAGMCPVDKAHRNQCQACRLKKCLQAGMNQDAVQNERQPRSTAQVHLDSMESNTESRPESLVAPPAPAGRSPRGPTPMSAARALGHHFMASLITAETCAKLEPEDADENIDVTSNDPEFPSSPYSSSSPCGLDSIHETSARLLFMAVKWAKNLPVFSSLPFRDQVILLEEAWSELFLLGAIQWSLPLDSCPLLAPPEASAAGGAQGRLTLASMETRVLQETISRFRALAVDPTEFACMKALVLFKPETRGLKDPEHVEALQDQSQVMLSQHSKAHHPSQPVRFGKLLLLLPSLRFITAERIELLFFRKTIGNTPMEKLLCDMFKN
# Chain of Peroxisome proliferator-activated receptor gamma/Nuclear receptor corepressor 2 (P37231 whole entry): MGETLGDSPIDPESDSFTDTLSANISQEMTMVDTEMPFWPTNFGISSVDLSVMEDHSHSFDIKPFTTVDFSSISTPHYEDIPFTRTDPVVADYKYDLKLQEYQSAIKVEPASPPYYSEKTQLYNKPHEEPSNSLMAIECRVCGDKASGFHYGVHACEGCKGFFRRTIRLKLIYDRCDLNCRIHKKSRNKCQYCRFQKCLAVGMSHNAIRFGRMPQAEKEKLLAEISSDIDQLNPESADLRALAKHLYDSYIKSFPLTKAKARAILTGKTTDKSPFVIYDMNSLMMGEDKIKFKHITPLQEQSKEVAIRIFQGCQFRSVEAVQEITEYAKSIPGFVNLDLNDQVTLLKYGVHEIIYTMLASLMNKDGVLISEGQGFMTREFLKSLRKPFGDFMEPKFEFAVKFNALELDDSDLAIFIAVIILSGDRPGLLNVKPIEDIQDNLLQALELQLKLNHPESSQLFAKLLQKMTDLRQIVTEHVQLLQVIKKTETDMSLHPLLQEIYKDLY
# Chain of Peroxisome proliferator-activated receptor gamma/Nuclear receptor corepressor 2 (Q9Y618 whole entry): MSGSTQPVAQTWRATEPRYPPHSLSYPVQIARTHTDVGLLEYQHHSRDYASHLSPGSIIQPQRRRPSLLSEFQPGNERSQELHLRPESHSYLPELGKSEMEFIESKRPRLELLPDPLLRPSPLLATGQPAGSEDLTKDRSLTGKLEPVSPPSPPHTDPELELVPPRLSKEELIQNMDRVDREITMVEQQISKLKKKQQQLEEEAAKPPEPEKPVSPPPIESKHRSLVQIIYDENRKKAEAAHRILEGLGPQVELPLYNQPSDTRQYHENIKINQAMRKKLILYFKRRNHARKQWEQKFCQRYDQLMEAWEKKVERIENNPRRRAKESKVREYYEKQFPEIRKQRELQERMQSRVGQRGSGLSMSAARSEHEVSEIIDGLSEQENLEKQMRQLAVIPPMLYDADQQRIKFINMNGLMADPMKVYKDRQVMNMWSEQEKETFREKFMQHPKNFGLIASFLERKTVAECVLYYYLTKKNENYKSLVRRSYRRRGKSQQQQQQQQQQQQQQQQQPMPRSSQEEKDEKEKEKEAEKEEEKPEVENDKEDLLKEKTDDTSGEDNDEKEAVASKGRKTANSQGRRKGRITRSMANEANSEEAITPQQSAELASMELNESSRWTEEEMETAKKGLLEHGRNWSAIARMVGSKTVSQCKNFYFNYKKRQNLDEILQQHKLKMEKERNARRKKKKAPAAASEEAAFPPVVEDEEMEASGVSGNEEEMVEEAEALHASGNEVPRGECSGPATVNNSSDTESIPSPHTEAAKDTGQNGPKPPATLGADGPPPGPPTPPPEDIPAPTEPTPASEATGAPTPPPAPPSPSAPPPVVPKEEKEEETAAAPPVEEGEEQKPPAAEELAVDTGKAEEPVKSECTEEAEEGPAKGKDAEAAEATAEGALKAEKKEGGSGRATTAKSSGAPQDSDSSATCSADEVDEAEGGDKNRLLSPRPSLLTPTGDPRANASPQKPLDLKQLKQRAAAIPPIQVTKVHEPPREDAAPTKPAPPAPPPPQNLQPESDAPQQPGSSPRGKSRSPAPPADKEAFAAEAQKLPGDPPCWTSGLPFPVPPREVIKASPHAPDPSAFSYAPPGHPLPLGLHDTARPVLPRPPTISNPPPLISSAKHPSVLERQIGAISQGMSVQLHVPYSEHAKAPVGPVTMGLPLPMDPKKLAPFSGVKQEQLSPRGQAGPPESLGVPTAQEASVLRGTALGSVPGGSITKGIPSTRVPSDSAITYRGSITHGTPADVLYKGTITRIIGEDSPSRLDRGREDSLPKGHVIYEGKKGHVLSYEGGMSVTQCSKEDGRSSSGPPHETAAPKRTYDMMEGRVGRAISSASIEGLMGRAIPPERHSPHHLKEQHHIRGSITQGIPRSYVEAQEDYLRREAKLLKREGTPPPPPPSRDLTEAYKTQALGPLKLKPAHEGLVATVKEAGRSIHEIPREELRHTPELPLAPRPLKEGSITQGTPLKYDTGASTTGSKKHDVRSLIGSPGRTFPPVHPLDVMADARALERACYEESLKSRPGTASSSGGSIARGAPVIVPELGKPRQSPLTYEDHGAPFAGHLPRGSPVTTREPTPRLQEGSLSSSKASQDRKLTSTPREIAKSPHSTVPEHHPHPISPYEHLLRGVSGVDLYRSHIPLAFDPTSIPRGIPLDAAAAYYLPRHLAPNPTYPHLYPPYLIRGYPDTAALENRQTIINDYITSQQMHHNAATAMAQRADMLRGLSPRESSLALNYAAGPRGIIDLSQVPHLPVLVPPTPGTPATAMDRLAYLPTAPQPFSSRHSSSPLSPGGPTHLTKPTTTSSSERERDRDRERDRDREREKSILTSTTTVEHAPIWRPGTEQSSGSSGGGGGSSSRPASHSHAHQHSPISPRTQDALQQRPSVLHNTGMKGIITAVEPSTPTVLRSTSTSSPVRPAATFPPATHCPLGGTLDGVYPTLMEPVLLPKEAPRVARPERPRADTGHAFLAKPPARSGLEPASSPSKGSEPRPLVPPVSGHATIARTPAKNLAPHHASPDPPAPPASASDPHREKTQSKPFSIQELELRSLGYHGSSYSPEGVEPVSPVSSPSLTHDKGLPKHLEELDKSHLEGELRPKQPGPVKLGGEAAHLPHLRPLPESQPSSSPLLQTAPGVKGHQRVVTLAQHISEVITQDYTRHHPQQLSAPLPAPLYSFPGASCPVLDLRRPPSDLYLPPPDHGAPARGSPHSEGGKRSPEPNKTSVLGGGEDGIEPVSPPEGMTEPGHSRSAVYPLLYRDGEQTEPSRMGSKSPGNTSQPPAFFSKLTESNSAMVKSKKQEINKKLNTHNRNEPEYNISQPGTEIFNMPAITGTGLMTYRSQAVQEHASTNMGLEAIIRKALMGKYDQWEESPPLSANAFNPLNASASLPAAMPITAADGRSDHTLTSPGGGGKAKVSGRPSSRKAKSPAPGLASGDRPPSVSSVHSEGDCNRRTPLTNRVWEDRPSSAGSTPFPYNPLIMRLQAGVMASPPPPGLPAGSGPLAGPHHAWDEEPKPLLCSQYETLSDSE
# Chain of Paired box protein Pax-8 (Q06710 whole entry): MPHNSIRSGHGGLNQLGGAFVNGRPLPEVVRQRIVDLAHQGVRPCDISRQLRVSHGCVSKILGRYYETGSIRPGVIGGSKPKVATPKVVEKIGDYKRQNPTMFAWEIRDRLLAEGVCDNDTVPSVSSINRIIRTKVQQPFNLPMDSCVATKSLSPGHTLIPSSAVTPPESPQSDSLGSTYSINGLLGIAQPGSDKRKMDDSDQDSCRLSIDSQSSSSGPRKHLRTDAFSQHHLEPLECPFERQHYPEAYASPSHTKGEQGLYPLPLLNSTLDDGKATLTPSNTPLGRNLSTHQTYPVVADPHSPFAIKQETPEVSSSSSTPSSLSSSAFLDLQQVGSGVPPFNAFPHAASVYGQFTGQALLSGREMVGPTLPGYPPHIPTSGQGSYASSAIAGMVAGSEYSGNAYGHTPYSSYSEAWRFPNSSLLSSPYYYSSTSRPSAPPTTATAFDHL
# Chain of Protein S100-A4 (P26447 whole entry): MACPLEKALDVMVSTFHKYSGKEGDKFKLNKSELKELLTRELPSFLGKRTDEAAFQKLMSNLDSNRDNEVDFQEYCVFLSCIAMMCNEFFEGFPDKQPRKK
smiles,measurement,setting,value
Cn1nc(-c2ccc(C(=O)Nc3cccc(Cl)c3)cc2)c2ccccc2c1=O,IC50,[1],1.78 µM (active)
same,IC50,[2],3.95 µM (active)
same,EC50,[3],14.8 µM (active)
same,EC50,[4],57.9 µM (inactive)
COc1ccc([N+](=O)[O-])cc1NC(=O)CCS(=O)(=O)c1ccc(Br)cc1,IC50,[5],4.79 µM (active)
same,EC50,[6],15 µM (inactive)
same,AC50,Caspase-7,> 70 µM (inactive)
same,EC50,[7],12.2 µM (active)
same,EC50,[8],1.45 µM (active)
same,AC50,Protein S100-A4,4.1 µM (active)
same,AC50,Caspase-6,3.61 µM (active)
CCc1cc2c(N3CCN(c4ccccc4)CC3)ncnc2s1,AC50,[9],11.3 µM (active)
same,AC50,[10],6.18 µM (active)
same,AC50,HEK293,26.7 µM (active)
same,AC50,[11],26.2 µM (active)
same,AC50,[12],34 µM (active)
CCCCCNC(=N)N/N=C/c1c[nH]c2ccc(OC)cc12 [TEGASEROD MALEATE],IC50,[13],23.4 µM (inactive)
same,EC50,[14],5.36 µM (inconclusive)
same,AC50,Paired box protein Pax-8,12.4 µM (active)
same,EC50,BJ [15],3.94 µM (active)
same,IC50,[16],8.2 µM (active)
same,IC50,Beta-galactosidase,> 66.6 µM (inactive)
same,EC50,[17],7.96 µM (active)
same,EC50,[18],> 60 µM (not active)
same,AC50,[19],23.2 µM (active)
same,IC50,[20],12.5 µM (active)
same,EC50,BJ [21],5.21 µM (inconclusive)
same,EC50,BJ [22],3.92 µM (inconclusive)
same,IC50,Bcl-2-related protein A1,> 20 µM (inactive)
same,EC50,[23],> 120 µM (not active)
same,EC50,BJ [24],7.15 µM (active)
same,AC50,[25],16.7 µM (active)
